The term IC50 denotes the midpoint of a concentration-inhibition curve. A low value points to greater potency in that assay.

Assay [1] deals with GDP-bound NRAS wild-type protein (Homo sapiens, UniProt P01111). Nature of the assay: Binding to NRAS by surface plasmon resonance (SPR), KD and KD ratio to KRAS. The following applies: ratio of KD for GDP-bound NRAS wild-type protein to KD for KRAS. In short, it runs like this:
(§1)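 Affinity is measured by surface plasmon resonance at 30°C against captured, GDP-loaded RAS carrying a biotinylated Avi tag. Compounds are titrated by single-cycle kinetics, and KD comes from a 1:1 fit.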
Background: SPR reads the build-up and loss of mass on a sensor chip optically.

The target of a further assay is HRAS wild-type protein (Homo sapiens, UniProt P01112). Description: Binding to HRAS by surface plasmon resonance (SPR), KD and KD ratio to KRAS. The following applies: ratio of KD for HRAS wild-type protein to KD for KRAS. In a few lines: as §1
In assay [2] the test system is human lung cancer strain NCI-H441. The format is cell-based. In a few lines:
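Readout: […] after the ATP-based reagent. Compound: serial dilutions in dimethyl sulfoxide.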

Chain of GDP-bound NRAS wild-type protein (P01111 whole entry): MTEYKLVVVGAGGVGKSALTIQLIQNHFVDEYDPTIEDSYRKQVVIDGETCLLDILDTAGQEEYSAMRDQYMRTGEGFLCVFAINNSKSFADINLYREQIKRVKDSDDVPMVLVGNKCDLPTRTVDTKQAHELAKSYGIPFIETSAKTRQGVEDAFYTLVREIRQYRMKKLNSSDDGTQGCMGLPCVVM
Chain of HRAS wild-type protein (P01112 whole entry): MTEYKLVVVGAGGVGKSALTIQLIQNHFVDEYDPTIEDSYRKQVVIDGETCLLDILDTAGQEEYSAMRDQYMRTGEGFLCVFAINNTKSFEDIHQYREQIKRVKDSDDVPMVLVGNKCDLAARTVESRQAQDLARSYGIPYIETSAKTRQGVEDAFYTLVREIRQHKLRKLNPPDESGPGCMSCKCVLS

As for `CCO[C@@H]1C[C@H]2C(=O)NC3(CCC3)C(=O)N(C)[C@@H](C3CCCC3)C(=O)N(C)[C@H](C(=O)N(C)C)CC(=O)N(C)[C@@H](CC)C(=O)N[C@@H]([C@@H](C)CC)C(=O)N3CC[C@H]3C(=O)N(C)[C@H]3C/C=C\CCN(C3=O)[C@@H](Cc3ccc(C(F)(F)F)cc3)C(=O)N(C)CC(=O)N[C@@H](CCc3cc(F)c(C(F)(F)F)c(F)c3)C(=O)N2C1` [PP0984], the “NRAS /KRAS” value in assay [1] is “A (a compound having 10 or more and less than 20 is denoted as A)”. Also, on HRAS wild-type protein, the “HRAS /KRAS” value was “A (a compound having 10 or more and less than 20 is denoted as A)”. Moreover, the half-maximal inhibitory concentration (IC50) in assay [2] worked out at 64.6 nM.
As to `CCO[C@@H]1C[C@H]2C(=O)NC3(CCC3)C(=O)N(C)[C@@H](C3CCCC3)C(=O)N(C)[C@H](C(=O)N(C)C)CC(=O)N(C)[C@@H](CC)C(=O)N[C@@H]([C@@H](C)CC)C(=O)N(C)CC(=O)N(C)[C@H]3CCCCN(C3=O)[C@@H](Cc3ccc(C(F)(F)F)cc3)C(=O)N(C)CC(=O)N[C@@H](CCc3cc(Cl)c(C(F)(F)F)c(Cl)c3)C(=O)N2C1` [PP0985], in assay [1], the “NRAS /KRAS” value is “C (A compound having a KD ratio of 0.1 or more and less than 3 is denoted as C)”. Besides, the “HRAS /KRAS” value at HRAS wild-type protein is “C (A compound having a KD ratio of 0.1 or more and less than 3 is denoted as C)”. Besides, in assay [2], half-maximal inhibition (IC50) was put at 12.2 nM.
As for `CCO[C@@H]1C[C@H]2C(=O)NC3(CCC3)C(=O)N(C)[C@@H](C3CCCC3)C(=O)N(C)[C@H](C(=O)N(C)C)CC(=O)N(C)[C@@H](CC)C(=O)N[C@@H]([C@@H](C)CC)C(=O)N(C)CC(=O)N(C)[C@H]3CCCCN(C3=O)[C@@H](Cc3ccc(C(F)(F)F)cc3)C(=O)N(C)CC(=O)N[C@@H](CCc3ccc(OC(F)F)c(F)c3)C(=O)N2C1` [PP0986], in assay [1], the “NRAS /KRAS” value was “C (A compound having a KD ratio of 0.1 or more and less than 3 is denoted as C)”. The “HRAS /KRAS” value on HRAS wild-type protein was “C (A compound having a KD ratio of 0.1 or more and less than 3 is denoted as C)”. The compound further showed an IC50 in assay [2] of 45.9 nM.
On to `CCO[C@@H]1C[C@H]2C(=O)NC3(CCC3)C(=O)N(C)[C@@H](C3CCCC3)C(=O)N(C)[C@H](C(=O)N(C)C)CC(=O)N(C)[C@@H](CC)C(=O)N[C@@H]([C@@H](C)CC)C(=O)N(C)CC(=O)N(C)[C@H]3CCCCN(C3=O)[C@@H](Cc3ccc(C(F)(F)F)cc3)C(=O)N(C)CC(=O)N[C@@H](CCc3ccc(Cl)c(Cl)c3)C(=O)N2C1` [PP0987], for which the “NRAS /KRAS” value in assay [1] is “C (A compound having a KD ratio of 0.1 or more and less than 3 is denoted as C)”. Besides, at HRAS wild-type protein, the “HRAS /KRAS” value is “C (A compound having a KD ratio of 0.1 or more and less than 3 is denoted as C)”. In assay [2], inhibition was half-maximal at 6.8 nM (IC50).
`CCO[C@@H]1C[C@H]2C(=O)NC3(CCC3)C(=O)N(C)[C@@H](C3CCCC3)C(=O)N(C)[C@H](C(=O)N(C)C)CC(=O)N(C)[C@@H](CC)C(=O)N[C@@H]([C@@H](C)CC)C(=O)N(C)CC(=O)N(C)[C@H]3CCCCN(C3=O)[C@@H](Cc3ccc(C(F)(F)F)cc3)C(=O)N(C)CC(=O)N[C@@H](CCc3cc(Cl)c(Cl)c(Cl)c3)C(=O)N2C1` [PP0988]: the “NRAS /KRAS” value in assay [1] is “C (A compound having a KD ratio of 0.1 or more and less than 3 is denoted as C)”. At HRAS wild-type protein, the “HRAS /KRAS” value is “B (a compound having 3 or more and less than 10 is denoted as B)”. This compound also gave an IC50 in assay [2] of 10.3 nM.
In the case of `CCO[C@@H]1C[C@H]2C(=O)NC3(CCC3)C(=O)N(C)[C@@H](C3CCCC3)C(=O)N(C)[C@H](C(=O)N(C)C)CC(=O)N(C)[C@@H](CC)C(=O)N[C@@H]([C@@H](C)CC)C(=O)N(C)CC(=O)N(C)[C@H]3CCCCCN(C3=O)[C@@H](Cc3ccc(C(F)(F)F)cc3)C(=O)N(C)CC(=O)N[C@@H](CCc3cc(Cl)c(C(F)(F)F)c(Cl)c3)C(=O)N2C1` [PP0989], in assay [1], the “NRAS /KRAS” value is “B (a compound having 3 or more and less than 10 is denoted as B)”. In addition, the “HRAS /KRAS” value on HRAS wild-type protein was “B (a compound having 3 or more and less than 10 is denoted as B)”. Also, the IC50 in assay [2] turned out to be 135 nM.
For `CCO[C@@H]1C[C@H]2C(=O)N[C@]3(C)CCCCCC[C@@H](C(=O)N[C@@H]([C@@H](C)CC)C(=O)N(C)CC(=O)N(C)[C@H]4CCCCN(C4=O)[C@@H](Cc4ccc(C(F)(F)F)cc4)C(=O)N(C)CC(=O)N[C@@H](CCc4cc(F)c(C(F)(F)F)c(F)c4)C(=O)N2C1)N(C)C(=O)C[C@@H](C(=O)N1CCOCC1)N(C)C(=O)[C@H](C1CCCC1)N(C)C3=O` [PP0992], in assay [1], the “NRAS /KRAS” value is “B (a compound having 3 or more and less than 10 is denoted as B)”. Also, the “HRAS /KRAS” value on HRAS wild-type protein was “B (a compound having 3 or more and less than 10 is denoted as B)”. The compound also registered an IC50 in assay [2] of 790 nM.
Consider `CCO[C@@H]1C[C@H]2C(=O)N[C@@]3(C)CCCCCCC[C@@H](C(=O)N[C@@H]([C@@H](C)CC)C(=O)N(C)CC(=O)N(C)[C@H]4CCCCN(C4=O)[C@@H](Cc4ccc(C(F)(F)F)cc4)C(=O)N(C)CC(=O)N[C@@H](CCc4cc(F)c(C(F)(F)F)c(F)c4)C(=O)N2C1)N(C)C(=O)C[C@@H](C(=O)N1CCOCC1)N(C)C(=O)[C@H](C1CCCC1)N(C)C3=O` [PP0993], for which, in assay [1], the “NRAS /KRAS” value was “B (a compound having 3 or more and less than 10 is denoted as B)”. In addition, on HRAS wild-type protein, the “HRAS /KRAS” value was “B (a compound having 3 or more and less than 10 is denoted as B)”. The IC50 in assay [2] amounted to 332 nM.
Turning to `CC[C@H](C)[C@@H]1NC(=O)[C@H](CC(C)C)N(C)C(=O)C[C@@H](C(=O)N2CCOCC2)N(C)C(=O)[C@H](C2CCCC2)N(C)C(=O)C2(CCC2)NC(=O)[C@@H]2C[C@@H](OCCC(F)(F)F)CN2C(=O)[C@H](CCc2cc(F)c(C(F)(F)F)c(F)c2)NC(=O)CN(C)C(=O)[C@H](Cc2ccc(C(F)(F)F)cc2)N2CCCC[C@@H](C2=O)N(C)C(=O)CN(C)C1=O` [PP0998], the “NRAS /KRAS” value in assay [1] was “B (a compound having 3 or more and less than 10 is denoted as B)”. The “HRAS /KRAS” value at HRAS wild-type protein is “B (a compound having 3 or more and less than 10 is denoted as B)”. Also, the IC50 in assay [2] is 19.7 nM.
In the case of `CC[C@H](C)[C@@H]1NC(=O)[C@H](CC(C)C)N(C)C(=O)C[C@@H](C(=O)N2CCOCC2)N(C)C(=O)[C@H](C2CCCC2)N(C)C(=O)C2(CCC2)NC(=O)[C@@H]2C[C@@H](OCC(F)F)CN2C(=O)[C@H](CCc2cc(F)c(C(F)(F)F)c(F)c2)NC(=O)CN(C)C(=O)[C@H](Cc2ccc(C(F)(F)F)cc2)N2CCCC[C@@H](C2=O)N(C)C(=O)CN(C)C1=O` [PP1002], the “NRAS /KRAS” value in assay [1] was “B (a compound having 3 or more and less than 10 is denoted as B)”. The “HRAS /KRAS” value at HRAS wild-type protein is “B (a compound having 3 or more and less than 10 is denoted as B)”. In assay [2], the IC50 came to 2.1 nM.
For the compound `CC[C@H](C)[C@@H]1NC(=O)[C@H](CC(C)C)N(C)C(=O)C[C@@H](C(=O)N2CCOCC2)N(C)C(=O)[C@H](C2CCCC2)N(C)C(=O)C2(CCC2)NC(=O)[C@@H]2C[C@@H](OC)CN2C(=O)[C@H](CCc2cc(F)c(C(F)(F)F)c(F)c2)NC(=O)CN(C)C(=O)[C@H](Cc2ccc(C(F)(F)F)cc2)N2CCCC[C@@H](C2=O)N(C)C(=O)CN(C)C1=O` [PP1003], in assay [1], the “NRAS /KRAS” value is “C (A compound having a KD ratio of 0.1 or more and less than 3 is denoted as C)”. Moreover, on HRAS wild-type protein, the “HRAS /KRAS” value is “B (a compound having 3 or more and less than 10 is denoted as B)”. The compound further registered an IC50 in assay [2] of 29.1 nM.
Turning to `CCCCO[C@@H]1C[C@H]2C(=O)NC3(CCC3)C(=O)N(C)[C@@H](C3CCCC3)C(=O)N(C)[C@H](C(=O)N3CCOCC3)CC(=O)N(C)[C@@H](CC(C)C)C(=O)N[C@@H]([C@@H](C)CC)C(=O)N(C)CC(=O)N(C)[C@H]3CCCCCN(C3=O)[C@@H](Cc3ccc(C(F)(F)F)cc3)C(=O)N(C)CC(=O)N[C@@H](CCc3cc(F)c(C(F)(F)F)c(F)c3)C(=O)N2C1` [PP1004], the “NRAS /KRAS” value in assay [1] was “B (a compound having 3 or more and less than 10 is denoted as B)”. Further, the “HRAS /KRAS” value at HRAS wild-type protein was “B (a compound having 3 or more and less than 10 is denoted as B)”. For the same compound, half-maximal inhibition in assay [2] (IC50) required 255 nM.
Consider `CC[C@H](C)[C@@H]1NC(=O)[C@H](CC(C)C)N(C)C(=O)C[C@@H](C(=O)N2CCOCC2)N(C)C(=O)[C@H](C2CCCC2)N(C)C(=O)C2(CCC2)NC(=O)[C@@H]2C[C@@H](OCC3CC3)CN2C(=O)[C@H](CCc2cc(F)c(C(F)(F)F)c(F)c2)NC(=O)CN(C)C(=O)[C@H](Cc2ccc(C(F)(F)F)cc2)N2CCCCC[C@@H](C2=O)N(C)C(=O)CN(C)C1=O` [PP1005], for which the “NRAS /KRAS” value in assay [1] was “A (a compound having 10 or more and less than 20 is denoted as A)”. At HRAS wild-type protein, the “HRAS /KRAS” value is “A (a compound having 10 or more and less than 20 is denoted as A)”. The same compound returned an IC50 in assay [2] of 275 nM.
As for `CC[C@H](C)[C@@H]1NC(=O)[C@H](CC(C)C)N(C)C(=O)C[C@@H](C(=O)N2CCOCC2)N(C)C(=O)[C@H](C2CCCC2)N(C)C(=O)C2(CCC2)NC(=O)[C@@H]2C[C@@H](OC)CN2C(=O)[C@H](CCc2cc(F)c(C(F)(F)F)c(F)c2)NC(=O)CN(C)C(=O)[C@H](Cc2ccc(C(F)(F)F)cc2)N2CCCCC[C@@H](C2=O)N(C)C(=O)CN(C)C1=O` [PP1016], the “NRAS /KRAS” value in assay [1] is “A (a compound having 10 or more and less than 20 is denoted as A)”. For the same compound, the “HRAS /KRAS” value at HRAS wild-type protein was “B (a compound having 3 or more and less than 10 is denoted as B)”. The compound further returned an IC50 in assay [2] of 61.2 nM.
With `CCO[C@@H]1C[C@H]2C(=O)NC3(CCCC3)C(=O)N(C)[C@@H](C3CCCC3)C(=O)N(C)[C@H](C(=O)N(C)C)CC(=O)N(C)[C@@H](CC(C)C)C(=O)N[C@@H]([C@@H](C)CC)C(=O)N(C)CC(=O)N(C)[C@H]3C[C@@H](C)CCN(C3=O)[C@@H](Cc3ccc(C(F)(F)F)cc3)C(=O)N(C)CC(=O)N[C@@H](CCc3cc(F)c(C(F)(F)F)c(F)c3)C(=O)N2C1` [PP1017], the “NRAS /KRAS” value in assay [1] is “C (A compound having a KD ratio of 0.1 or more and less than 3 is denoted as C)”. The “HRAS /KRAS” value on HRAS wild-type protein was “B (a compound having 3 or more and less than 10 is denoted as B)”. The compound further came in with an IC50 in assay [2] of 5 nM.

The values above are taken from patent publication EP4603105A1, “PHARMACEUTICAL COMPOSITION CONTAINING CYCLIC COMPOUND HAVING SELECTIVE KRAS INHIBITORY EFFECT AGAINST HRAS AND NRAS” (CHUGAI SEIYAKU KABUSHIKI KAISHA, priority 2022, dated 2024).
